For orientation: IC50 means the concentration that gives 50% inhibition. A lower IC50 goes with greater potency.

Test [1] addresses T1, PAR4 (Homo sapiens, UniProt Q96RI0).
T1 construct: Human platelets express both PAR1 and PAR4; endogenous in cells; host or cells: washed human platelets from volunteer donors
T1 sequence (Q96RI0 18-385): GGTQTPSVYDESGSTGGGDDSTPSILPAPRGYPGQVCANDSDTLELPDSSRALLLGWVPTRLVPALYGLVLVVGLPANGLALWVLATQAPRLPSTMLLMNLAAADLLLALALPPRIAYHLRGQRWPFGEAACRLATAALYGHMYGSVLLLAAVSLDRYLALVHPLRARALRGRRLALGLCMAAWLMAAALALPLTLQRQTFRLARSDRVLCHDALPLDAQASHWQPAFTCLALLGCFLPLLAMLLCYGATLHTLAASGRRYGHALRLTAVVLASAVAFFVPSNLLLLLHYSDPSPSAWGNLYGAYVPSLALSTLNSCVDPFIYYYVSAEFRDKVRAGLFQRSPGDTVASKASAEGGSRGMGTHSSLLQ
In words: High-throughput platelet calcium mobilization assay (PAR4-AP stimulated). The test is classed as cell-based. As to conditions: for Emax at 10 µM: 10 µM compound 6 min prior to 80 µM PAR4-AP, Figure 2D, read-out: PAR4 mediated platelet calcium mobilization, percent of the maximum response. The protocol:
Washed human platelets were prepared via standard procedure and suspended in Tyrode’s buffer containing 0.1% BSA. Platelets were dye loaded for 1 hour with Fluo4-AM in calcium assay buffer (1X HBSS without calcium or magnesium, 20 mM HEPES, 2.5 mM probenecid, 1 mM EGTA, 0.1% BSA). The calcium assay buffer containing dye is mixed with platelets to yield a final concentration of 2.5 µg/mL Fluo4-AM and 1.0×10^8 platelets/mL. 60 µL of dye loaded platelets were added to each well of a NUNC 384 well plate black optical bottom plate (Thermo, Rochester, NY). Fluorescence measurements were recorded on a Functional Drug Screening System (FDSS) 6000, Hamamatsu (Hamamatsu, Japan) at 37°C. […] Compounds were injected by the FDSS and occurred simultaneously across each plate. Experiments reported were performed in triplicate, on the same plate, from the indicated number of donors. 480∶540 (ex:em) was measured each second for a total of 12 minutes. The final concentration of DMSO in the assay was 0.5%.
The difference between basal (defined as t0) and maximal relative fluorescence unit (RFU) values (ΔRFUs) for ex:em 480∶540 was determined for each well. The triplicate ΔRFU for DMSO treated control wells stimulated with 80 µM PAR4-AP was averaged and the average value ΔC was set to 100% max response for each plate. Each well was subsequently normalized as a percent of the ΔC control (value/ΔC×100). Normalized data was plotted in GraphPad PRISM v.5.0.
(A change in cytosolic calcium serves as a functional read-out for many receptors and channels.)

The target in test [2] is T1, PAR4. Nature of the test: Flow cytometry: PAR4-AP mediated GPIIbIIIa activation (PAC-1 binding) in washed platelets. It is filed as cell-based. As to conditions: for IC50: 200 µM PAR4-AP, compound 5 min before, normalized to DMSO control, Figure 4; for Extent of antagonism of PAR4 mediated platelet response / GPIIbIIIa activation: maximal (200 µM) PAR4-AP, up to 10 µM compound. The protocol:
(§1) Briefly, 60 µL of washed platelets at a concentration of 1.5×10^7 platelets/mL were added to polystyrene tubes. Anti-CD62P antibody or PAC-1 antibody were diluted (per manufacturer protocol) in Tyrode’s buffer containing 0.1% BSA. 40 µL of diluted antibody was added to the platelets and allowed to bind for 5 minutes. Platelets were pre-treated with indicated concentrations of antagonist or DMSO control for 5 minutes followed by addition of PAR1-AP or PAR4-AP for 10 minutes. […] The final DMSO concentration was 0.5%. Platelets were stored up to 18 hours at 4°C before flow cytometric analysis. Analysis was carried out on a BD FACS Canto II (Franklin Lakes, NJ). Fluorescent intensity was determined for 100,000 events within the platelet gate. Data was collected and analyzed via FACS DiVa software.
(§2) 100% max response was determined for each individual as the DMSO treated control stimulated with either 200 µM PAR4-AP, 20 µM PAR1-AP, or 10 nM thrombin. Samples treated with antagonist were normalized as a percentage of the DMSO treated control. Normalized data was plotted in GraphPad PRISM v.5.0. Dose response curves and subsequent IC50 values were generated using the ‘log(inhibitor) vs. response variable slope’ parameter. Data plotted is mean±S.E.M. or mean±S.D.
(In flow cytometry, cells or beads pass a laser one at a time.)

In test [3] the target is T2, PAR1 (Homo sapiens, UniProt P25116).
T2 construct: Human platelets express both PAR1 and PAR4; endogenous in cells; host or cells: washed human platelets from volunteer donors
T2 sequence (P25116 22-425): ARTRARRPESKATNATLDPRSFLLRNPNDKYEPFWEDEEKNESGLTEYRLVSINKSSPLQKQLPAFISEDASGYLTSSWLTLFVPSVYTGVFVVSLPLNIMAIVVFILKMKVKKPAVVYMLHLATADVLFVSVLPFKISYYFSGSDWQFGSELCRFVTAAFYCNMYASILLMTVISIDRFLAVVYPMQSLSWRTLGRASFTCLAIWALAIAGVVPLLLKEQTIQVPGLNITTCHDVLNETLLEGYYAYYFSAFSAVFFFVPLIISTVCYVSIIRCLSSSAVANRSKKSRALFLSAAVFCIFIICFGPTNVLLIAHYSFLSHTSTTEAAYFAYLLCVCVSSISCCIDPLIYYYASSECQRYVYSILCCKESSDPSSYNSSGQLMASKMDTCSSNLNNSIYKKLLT
In words: Flow cytometry: PAR1-AP mediated GPIIbIIIa activation (PAC-1 binding) in washed platelets. It is filed as cell-based. As to conditions: 20 µM PAR1-AP. The protocol:
as §1, §2

For test [4], the system named is thrombin mediated platelet GPIIbIIIa activation. In words: Flow cytometry: thrombin mediated GPIIbIIIa activation in washed platelets. It is filed as cell-based, human. As to conditions: for Addition of the effect of RWJ-56110 on thrombin and the effect of the compound on PAR1-AP: sum of separate inhibitory effects, 1 µM compound, 10 µM RWJ-56110. The protocol:
Briefly, 60 µL of washed platelets at a concentration of 1.5×10^7 platelets/mL were added to polystyrene tubes. Anti-CD62P antibody or PAC-1 antibody were diluted (per manufacturer protocol) in Tyrode’s buffer containing 0.1% BSA. 40 µL of diluted antibody was added to the platelets and allowed to bind for 5 minutes. Platelets were pre-treated with indicated concentrations of antagonist or DMSO control for 5 minutes followed by addition of PAR1-AP or PAR4-AP for 10 minutes. Platelet activity was quenched by the addition ice cold 1.5% paraformaldehyde followed by dilution in 1X phosphate buffered saline. The final DMSO concentration was 0.5%. Platelets were stored up to 18 hours at 4°C before flow cytometric analysis. Analysis was carried out on a BD FACS Canto II (Franklin Lakes, NJ). Fluorescent intensity was determined for 100,000 events within the platelet gate. Data was collected and analyzed via FACS DiVa software.
as §2

Test [5] deals with T1, PAR4. Nature of the test: PAR4-AP mediated platelet aggregation (light transmittance). It is filed as cell-based. As to conditions: 200 µM PAR4-AP; compound 10 min before; Figure 6. The protocol: (§3) Briefly, washed human platelets were prepared to a final concentration of 2.0×10^8 platelets/mL in Tyrode’s buffer containing 0.1% BSA. Compounds or DMSO control were added 10 minutes prior to stimulation with either PAR1-AP or PAR4-AP. The final DMSO concentration was 0.1%. Light transmittance was recorded by a Chrono-Log Model 700 Aggregometer.
(§4) The percent of light transmitted as reported by the aggregometer was recorded in GraphPad PRISM v.5.0. 100% light transmission signifies full platelet aggregation.

In test [6] the target is T2, PAR1. Nature of the test: PAR1-AP mediated platelet aggregation (light transmittance). As to conditions: 20 µM PAR1-AP; compound 10 min before; Figure 6. The test is classed as cell-based. The protocol:
as §3, §4

Test [7] deals with T1, PAR4. Nature of the test: Flow cytometry: PAR4-AP mediated P-selectin expression (anti-CD62P binding) in washed platelets. It is filed as cell-based. The protocol: as §1, §2
The target of test [8] is T1, PAR4. On the set-up: method as in PMID 12083482. As to conditions: cited from earlier work.
[9] abbreviates: 1 µM compound + 10 µM RWJ-56110, 10 nM thrombin.

Take `CCOC(=O)c1ccc(-c2cn(Cc3ccccc3)c3ncccc23)cc1` [Compound 5]: on PAR4 [1], the Emax at 10 µM is less than 50%. For the same molecule, at PAR4 [2], the IC50 stood at 170 ± 1 nM and the “Extent of antagonism of PAR4 mediated platelet response / GPIIbIIIa activation” value was “fully antagonize”. Besides, the “Reduction of PAR1 mediated GPIIbIIIa activation” value at PAR1 [3] (1 µM compound) was 7.2±1.4%. Also, the “Reduction of thrombin mediated GPIIbIIIa activation in combination with RWJ-56110” value (from here on “Reduction … with RWJ-56110”) in test [4] (setting [9]) worked out at 17±2%. Further, the “Inhibition of PAR4 mediated platelet aggregation” value on PAR4 [5] is listed as “significantly inhibit PAR4”. The “Inhibition of PAR1 mediated platelet aggregation” value at PAR1 [6] is on record as “not PAR1 mediated platelet aggregation”.

Consider `CCOC(=O)c1ccc(-c2cn(Cc3ccccc3)c3ccccc23)cc1` [Compound 1], for which the “Reduction … with RWJ-56110” value in test [4] (setting [9]) worked out at 37.1±6.4%. For the same molecule, in test [4], the “Addition of the effect of RWJ-56110 on thrombin and the effect of the compound on PAR1-AP” value worked out at 32.5±6.1%.

In the case of `CCOC(=O)c1ccc(-c2nn(Cc3ccccc3)c3ccccc23)cc1` [YD-3, ethyl 4-(1-benzyl-1H-indazol-3-yl)benzoate, reference compound], at PAR4 [1] (10 µM YD-3, increasing treatment times, then 80 µM PAR4-AP, Figure 2B), the “Inhibition time course of PAR4-AP calcium mobilization” value is “significant inhibition by YD-3 occurred as early as 1 minute”. Further, the IC50 is 26 ± 1 nM at PAR4 [2] and 16.4 ± 1.1 nM at PAR4 [7] (200 µM PAR4-AP, from raw mean fluorescent intensity values, Figure S4). Also, the “Reduction … with RWJ-56110” value in test [4] (setting [9]) turned out to be 42.9±9.7%. Moreover, the “Addition of the effect of RWJ-56110 on thrombin and the effect of the compound on PAR1-AP” value in test [4] was found to be 26.8±6.0%. The “Mechanism of action against PAR4 (shift of PAR4-AP concentration response curve)” value at PAR4 [7] (P-selectin expression, twelve point PAR4-AP CRCs with increasing antagonist, Figure 7) is “competitive mechanism of action”. At PAR4 [8], the “Mechanism of action against PAR4 by platelet aggregation” value was “competitive in nature”.

For `NCC[C@H](NC(=O)[C@H](Cc1ccc(F)c(F)c1)NC(=O)Nc1ccc2c(CN3CCCC3)cn(Cc3c(Cl)cccc3Cl)c2c1)C(=O)NCc1ccccc1` [RWJ-56110, reference compound], the “Inhibition of thrombin mediated GPIIbIIIa activation, compound alone” value in test [4] (10 µM RWJ-56110 alone, 10 nM thrombin) was 18.4±5.4%.

`CCOC(=O)c1ccc(-c2cn(Cc3ccccn3)c3ccccc23)cc1` [Compound 3]: on PAR4 [1], the Emax at 10 µM is less than 50%. At PAR4 [2], the half-maximal inhibitory concentration (IC50) is 1000 ± 1100 nM and the “Extent of antagonism of PAR4 mediated platelet response / GPIIbIIIa activation” value is given as “fully antagonize”. Besides, the “Reduction of PAR1 mediated GPIIbIIIa activation” value on PAR1 [3] (3.16 µM compound) is listed as 7.2±1.3%. The “Reduction … with RWJ-56110” value in test [4] (3.16 µM compound + 10 µM RWJ-56110, 10 nM thrombin) is reported as 14±2%. At PAR4 [5], the “Inhibition of PAR4 mediated platelet aggregation” value was “non-significantly”.

The values are drawn from PMC3679140, “Synthesis of Indole Derived Protease-Activated Receptor 4 Antagonists and Characterization in Human Platelets” (PLoS ONE, 2013).
